Columns and labels:
Assay in all cases: relative viability (nuclei count vs DMSO), 5 days (fraction); higher = more cells survive
[1] = compound: CS(=O)(=O)c1ccc(-c2cnc(N)c(C(=O)Nc3ccccc3)n2)cc1 [VE-821] + NC(=O)Nc1cc(-c2cccc(F)c2)sc1C(=O)N[C@H]1CCCNC1 [AZD7762] (partner 0.2 µM)
Method in brief: (§1)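 Medians of duplicate plates are given as relative viability. That measure is the nuclei count in treated wells divided by the count in vehicle wells. Counts were taken on 4× images of lung cancer cell lines in 1536-well plates, 5 days after pin-tool dosing the day after seeding with one drug alone or a fixed anchor-drug dose plus five library-drug doses (not always all listed) in √10 steps.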

[2] = compound: CS(=O)(=O)c1ccc(C(=O)Nc2ccc(Cl)c(-c3ccccn3)c2)c(Cl)c1 [Vismodegib] + CC(C)C[C@H](NC(=O)[C@H](Cc1ccccc1)NC(=O)c1cnccn1)B(O)O [Bortezomib] (partner 0.002 µM)
Method in brief: as §1

[3] = compound: CS(=O)(=O)c1ccc(C(=O)Nc2ccc(Cl)c(-c3ccccn3)c2)c(Cl)c1 [Vismodegib] + Cc1nc(NC(=O)N2CCC[C@H]2C(N)=O)sc1-c1ccnc(C(C)(C)C(F)(F)F)c1 [Alpelisib] (partner 2 µM)
Method in brief: as §1

[4] = compound: CS(=O)(=O)c1ccc(-c2cnc(N)c(C(=O)Nc3ccccc3)n2)cc1 [VE-821] + O=C(CCCCCCC(=O)Nc1ccccc1)NO [Vorinostat] (partner 1 µM)
Method in brief: as §1

Cell Line | relative viability ([1]; first compound 0.08 µM) | relative viability ([1]; first compound 0.253 µM) | relative viability ([1]; first compound 0.8 µM) | relative viability ([1]; first compound 2.53 µM) | relative viability ([1]; first compound 8 µM) | relative viability ([2]; first compound 0.08 µM) | relative viability ([2]; first compound 0.253 µM) | relative viability ([2]; first compound 0.8 µM) | relative viability ([2]; first compound 2.53 µM) | relative viability ([2]; first compound 8 µM) | relative viability ([3]; first compound 0.08 µM) | relative viability ([3]; first compound 0.253 µM) | relative viability ([3]; first compound 0.8 µM) | relative viability ([3]; first compound 2.53 µM) | relative viability ([3]; first compound 8 µM) | relative viability ([4]; first compound 0.08 µM) | relative viability ([4]; first compound 0.253 µM) | relative viability ([4]; first compound 0.8 µM) | relative viability ([4]; first compound 2.53 µM) | relative viability ([4]; first compound 8 µM)
EPLC-272H | 0.163 | 0.149 | 0.2 | 0.188 | 0.127 | 0.988 | 0.783 | 0.864 | 1.14 | 0.723 | 0.894 | 0.888 | 0.872 | 1 | 0.931 | 0.575 | 0.378 | 0.332 | 0.428 | 0.157
H3255 | 0.96 | 0.927 | 0.913 | 0.932 | 0.649 | 0.855 | 0.632 | 0.596 | 0.762 | 0.753 | 0.75 | 0.676 | 0.764 | 0.752 | 0.543 | 0.953 | 0.742 | 0.915 | 0.772 | 0.805
HARA | 0.256 | 0.315 | 0.145 | 0.158 | 0.249 | 1.08 | 1.1 | 1.11 | 1.19 | 1.17 | 0.833 | 0.863 | 0.817 | 0.8 | 0.788 | 0.6 | 0.472 | 0.624 | 0.633 | 0.708
HCC-15 | 1.35 | 0.434 | 1.23 | 1.29 | 1.26 | 0.978 | 1.07 | 0.938 | 1.09 | 1 | 0.894 | 0.822 | 0.871 | 0.866 | 0.83 | 0.954 | 0.868 | 0.901 | 0.943 | 0.934
HCC-44 | 0.94 | 0.944 | 1.07 | 0.964 | 0.914 | 0.918 | 0.816 | 0.897 | 0.841 | 0.901 | 0.787 | 0.771 | 0.717 | 0.799 | 0.818 | 1.07 | 1.07 | 1.12 | 1.15 | 1.09
HCC-78 | 0.679 | 0.626 | 0.5 | 0.58 | 0.392 | – | 0.498 | 0.488 | 0.549 | 0.4 | 0.369 | 0.346 | 0.267 | 0.359 | 0.362 | 0.388 | 0.53 | 0.393 | 0.493 | 0.417
HCC-366 | 0.235 | 0.148 | 0.0505 | 0.056 | 0.0429 | 1.06 | 1.03 | 1.06 | 0.934 | 1.06 | 0.436 | 0.467 | 0.362 | 0.402 | 0.556 | 0.426 | 0.269 | 0.28 | 0.121 | 0.0472
HCC-827 | 0.178 | 0.194 | 0.169 | 0.18 | 0.189 | 1.05 | 1.06 | 0.982 | 1.14 | 0.985 | 0.982 | 0.993 | 0.972 | 0.998 | 0.949 | 0.728 | 0.779 | 0.856 | 0.837 | 0.722
HOP-62 | 0.906 | 0.616 | 0.406 | 0.392 | 0.19 | 0.863 | 0.657 | 0.882 | 0.743 | 0.637 | 0.92 | 0.906 | 0.978 | 0.919 | 1.12 | 0.766 | 0.542 | 0.644 | 0.771 | 0.469
LC-2-ad | 0.882 | 0.818 | 0.862 | 0.848 | 0.689 | 1.06 | 0.987 | 0.981 | 0.947 | 0.871 | 0.894 | 0.909 | 0.859 | 0.818 | 0.918 | 0.758 | 0.748 | 0.768 | 0.8 | 0.659
LCLC-97TM1 | 0.162 | 0.137 | 0.204 | 0.116 | 0.133 | 0.741 | 0.652 | 0.804 | 0.694 | 0.671 | – | – | 0.287 | – | 0.287 | 0.84 | 0.65 | 0.879 | 1.01 | 0.327
LCLC-103H | 0.829 | 0.758 | 0.705 | 0.758 | 0.632 | 1.05 | 1.03 | 1.07 | 0.99 | 0.983 | 1.05 | 0.973 | 0.908 | 0.978 | 0.947 | 0.863 | 0.772 | 0.783 | 0.834 | 0.592
LOU-NH91 | 0.796 | 0.711 | 0.823 | 0.717 | 0.681 | 0.507 | 0.537 | 0.471 | 0.389 | 0.498 | 0.693 | 0.782 | 0.699 | 0.695 | 0.755 | 0.885 | 0.879 | 0.919 | 0.966 | 0.825
LU99A | 0.372 | 0.307 | 0.208 | 0.195 | 0.102 | 1.12 | 1.13 | 1.25 | 1.09 | 1.15 | 0.617 | 0.544 | 0.474 | 0.499 | 0.556 | 0.515 | 0.462 | 0.471 | 0.431 | 0.299
LXF-289 | 0.931 | 1.08 | 1.12 | 0.971 | 0.686 | 0.985 | 0.977 | 1.02 | 0.965 | 0.944 | 1 | 0.993 | 1.07 | 0.994 | 1.04 | 0.78 | 0.843 | 0.827 | 0.812 | 0.786
